Data on 16 compounds can be found in patent publication US20220356174A1, “PYRIDIN-2-ONE COMPOUNDS USEFUL AS SMARCA2 ANTAGONISTS” (Epizyme, Inc., priority 2018, published 2022).

Structures are written as SMILES.

One may read the IC50 as the point on the concentration scale where inhibition reaches its midpoint.

T1 sequence (P51531 with tags, fused parts or gaps): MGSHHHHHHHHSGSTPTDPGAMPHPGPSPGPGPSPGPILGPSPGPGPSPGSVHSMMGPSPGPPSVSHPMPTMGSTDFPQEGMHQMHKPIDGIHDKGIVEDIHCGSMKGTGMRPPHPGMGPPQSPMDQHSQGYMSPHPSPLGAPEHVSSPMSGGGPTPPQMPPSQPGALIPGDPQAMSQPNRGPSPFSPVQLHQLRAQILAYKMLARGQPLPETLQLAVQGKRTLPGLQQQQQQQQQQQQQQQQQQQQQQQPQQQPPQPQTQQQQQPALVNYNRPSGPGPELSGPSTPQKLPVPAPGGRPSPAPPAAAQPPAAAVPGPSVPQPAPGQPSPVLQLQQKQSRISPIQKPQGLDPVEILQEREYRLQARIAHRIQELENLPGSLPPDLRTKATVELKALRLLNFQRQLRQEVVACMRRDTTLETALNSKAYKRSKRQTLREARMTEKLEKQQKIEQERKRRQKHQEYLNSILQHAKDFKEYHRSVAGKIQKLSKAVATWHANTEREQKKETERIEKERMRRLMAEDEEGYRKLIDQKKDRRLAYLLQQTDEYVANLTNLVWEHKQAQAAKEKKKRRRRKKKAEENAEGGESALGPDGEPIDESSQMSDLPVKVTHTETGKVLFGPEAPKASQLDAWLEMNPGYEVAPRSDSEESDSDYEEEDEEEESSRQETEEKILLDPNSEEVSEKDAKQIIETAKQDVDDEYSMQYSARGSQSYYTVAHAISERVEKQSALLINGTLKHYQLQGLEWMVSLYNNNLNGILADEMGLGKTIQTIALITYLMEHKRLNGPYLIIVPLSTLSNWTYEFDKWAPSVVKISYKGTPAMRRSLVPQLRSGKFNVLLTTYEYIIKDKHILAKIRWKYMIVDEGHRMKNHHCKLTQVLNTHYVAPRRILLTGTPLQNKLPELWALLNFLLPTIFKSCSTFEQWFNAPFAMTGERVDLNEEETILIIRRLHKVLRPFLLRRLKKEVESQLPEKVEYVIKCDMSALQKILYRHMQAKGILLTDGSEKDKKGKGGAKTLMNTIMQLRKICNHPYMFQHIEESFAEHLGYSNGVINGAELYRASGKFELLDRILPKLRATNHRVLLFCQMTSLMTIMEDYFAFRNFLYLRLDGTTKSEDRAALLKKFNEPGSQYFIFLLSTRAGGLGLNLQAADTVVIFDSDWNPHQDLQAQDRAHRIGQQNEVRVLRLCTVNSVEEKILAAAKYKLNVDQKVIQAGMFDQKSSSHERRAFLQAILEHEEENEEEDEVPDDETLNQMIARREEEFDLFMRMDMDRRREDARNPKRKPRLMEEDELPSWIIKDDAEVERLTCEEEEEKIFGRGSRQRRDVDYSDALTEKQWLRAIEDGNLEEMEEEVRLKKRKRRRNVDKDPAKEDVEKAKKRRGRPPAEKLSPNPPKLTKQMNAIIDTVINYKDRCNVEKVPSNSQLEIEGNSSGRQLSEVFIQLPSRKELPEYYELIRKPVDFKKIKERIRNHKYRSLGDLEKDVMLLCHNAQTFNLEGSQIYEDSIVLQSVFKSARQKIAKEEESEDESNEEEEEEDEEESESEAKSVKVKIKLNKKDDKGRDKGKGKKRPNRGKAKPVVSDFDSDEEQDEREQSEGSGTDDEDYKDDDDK

The first assay concerns the target T1, FL-SMARCA2 (full-length human SMARCA2 isoform 1) (Homo sapiens, UniProt P51531).
T1 construct: FLAG tag (YKDDDDK) (C); made in house; host or cells: Sf21 insect cells (baculovirus, pFastBacI)
Kind of assay: SMARCA2 ATPase activity assay (ADP-Glo, chicken mononucleosome substrate). The assay is classed as biochemical. The note with it: Table 3c.1; ATPase assay, enzyme 5 nM, ATP 250 uM, chicken mononucleosome 10 nM, 30 min preincubation.
The compound `Cc1nc2cc(C#Cc3cc(C(=O)Nc4cc(F)c(=O)n(CC(F)F)c4)sc3Cl)ccc2[nH]1` [Compound 141c] gave an IC50 of 28 nM.

`O=C1CC(C#Cc2cc(C(=O)Nc3cc(F)c(=O)n(CC(F)F)c3)sc2Cl)CN1` (stereo not shown) [Compound 116c] returned an IC50 of 206 nM.

`O=C(Nc1cc(F)c(=O)n(CC(F)F)c1)c1cc(C#CC2CCOC2)c(Cl)s1` (stereo not shown) [Compound 58c] returned an IC50 of 44.7 nM.

Regarding `NCc1nc(C#Cc2cc(C(=O)Nc3cc(F)c(=O)n(CC(F)F)c3)sc2Cl)cs1` [Compound 125c], the 50% inhibitory concentration (IC50) came to 52.2 nM.

Regarding `O=C(Nc1cc(F)c(=O)n(CC(F)F)c1)c1cc(C#CC2CCOCC2)c(Cl)s1` [Compound 22c], the IC50 stood at 30.1 nM.

Compound `Cc1cc(C#Cc2cc(C(=O)Nc3cc(F)c(=O)n(CC(F)F)c3)sc2Cl)on1` [Compound 63c] came in with a half-inhibitory concentration (IC50) of 33.3 nM.

In the case of `N#Cc1sc(C(=O)Nc2cc(F)c(=O)n(CC(F)F)c2)cc1C#CC1COC1` [Compound 177c], 12.7 nM corresponded to half-maximal inhibition (IC50).

`O=C(Nc1cc(F)c(=O)n(CC(F)F)c1)c1cc(C#Cc2cn3c(n2)CNCC3)c(Cl)s1` [Compound 147c] gave an IC50 of 5240 nM.

With `O=C(Nc1cc(F)c(=O)n(CC(F)F)c1)c1cc(C#Cc2cccnn2)c(Cl)s1` [Compound 55c], the IC50 came to 77.8 nM.

With `O=C(Nc1cc(F)c(=O)n(CC(F)F)c1)c1cc(/C=C/c2cccnc2)c(Cl)s1` [Compound 95c], 603 nM corresponded to half-maximal inhibition (IC50).

Regarding `Cc1nc(C#Cc2cc(C(=O)Nc3cc(F)c(=O)n(CC(F)F)c3)sc2Cl)cs1` [Compound 61c], inhibition was half-maximal at 26.7 nM (IC50).

Turning to `O=C(O)c1cccc(C#Cc2cc(C(=O)Nc3cc(F)c(=O)n(CC(F)F)c3)sc2Cl)c1` [Compound 131c], 8.68 nM corresponded to half-maximal inhibition (IC50).

Turning to `CN(C)C(=O)c1cccc(C#Cc2cc(C(=O)Nc3cc(F)c(=O)n(CC(F)F)c3)sc2Cl)c1` [Compound 74c], the IC50 came out at 67.5 nM.

`CN1CCn2c(C#Cc3cc(C(=O)Nc4cc(F)c(=O)n(CC(F)F)c4)sc3Cl)cnc2C1` [Compound 66c] returned an IC50 of 236 nM.

In turn, `O=C(Nc1cc(F)c(=O)n(CC(F)F)c1)c1cc(C#Cc2cnn(CCO)c2)c(Cl)s1` [Compound 122c] had an IC50 of 52 nM.

As to `O=C1Cc2c(C#Cc3cc(C(=O)Nc4cc(F)c(=O)n(CC(F)F)c4)sc3Cl)cccc2N1` [Compound 142c], half-maximal inhibition (IC50) required 49.9 nM.

The next assay has as its system A549 cells. Kind of assay: High-throughput proliferation (HTP) assay for A549 cells (CellTiter-Glo, 7 days). The assay is classed as cell-based. The note with it: Homo sapiens, 168 h, read-out: A549 SMARCA2 IC50. The essentials:
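A549 cells plated at 62.5 cells/well in F12K + 10% HI-FBS onto pre-dispensed compound, grown 7 days at 37° C., 5% CO2. Viability by CellTiter-Glo luminescence after 30 min at RT; EC50/IC50 from DMSO (0%) and 10 μM Doxorubicin (100%) inhibition controls.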
A general note: ATP-based viability assays read luminescence as a measure of living cells.
On to `Cc1nc2cc(C#Cc3cc(C(=O)Nc4cc(F)c(=O)n(CC(F)F)c4)sc3Cl)ccc2[nH]1` [Compound 141c], for which the IC50 is 6020 nM.

`O=C1CC(C#Cc2cc(C(=O)Nc3cc(F)c(=O)n(CC(F)F)c3)sc2Cl)CN1` (stereo not shown) [Compound 116c]: the IC50 was found to be 3790 nM.

As for `O=C(Nc1cc(F)c(=O)n(CC(F)F)c1)c1cc(C#CC2CCOC2)c(Cl)s1` (stereo not shown) [Compound 58c], the IC50 was 1500 nM.

As for `NCc1nc(C#Cc2cc(C(=O)Nc3cc(F)c(=O)n(CC(F)F)c3)sc2Cl)cs1` [Compound 125c], the IC50 is 4460 nM.

Regarding `O=C(Nc1cc(F)c(=O)n(CC(F)F)c1)c1cc(C#CC2CCOCC2)c(Cl)s1` [Compound 22c], the IC50 came out at 664 nM.

`Cc1cc(C#Cc2cc(C(=O)Nc3cc(F)c(=O)n(CC(F)F)c3)sc2Cl)on1` [Compound 63c]: the IC50 turned out to be 2290 nM.

Turning to `N#Cc1sc(C(=O)Nc2cc(F)c(=O)n(CC(F)F)c2)cc1C#CC1COC1` [Compound 177c], the IC50 amounted to 1370 nM.

For the compound `O=C(Nc1cc(F)c(=O)n(CC(F)F)c1)c1cc(C#Cc2cn3c(n2)CNCC3)c(Cl)s1` [Compound 147c], the IC50 is over 10000 nM.

For the compound `O=C(Nc1cc(F)c(=O)n(CC(F)F)c1)c1cc(C#Cc2cccnn2)c(Cl)s1` [Compound 55c], the IC50 came to 3780 nM.

In the case of `O=C(Nc1cc(F)c(=O)n(CC(F)F)c1)c1cc(/C=C/c2cccnc2)c(Cl)s1` [Compound 95c], the IC50 is over 10000 nM.

As to `Cc1nc(C#Cc2cc(C(=O)Nc3cc(F)c(=O)n(CC(F)F)c3)sc2Cl)cs1` [Compound 61c], the IC50 stood at 1510 nM.

With `O=C(O)c1cccc(C#Cc2cc(C(=O)Nc3cc(F)c(=O)n(CC(F)F)c3)sc2Cl)c1` [Compound 131c], the IC50 is over 10000 nM.

For the compound `CN(C)C(=O)c1cccc(C#Cc2cc(C(=O)Nc3cc(F)c(=O)n(CC(F)F)c3)sc2Cl)c1` [Compound 74c], the IC50 stood at 3930 nM.

As for `CN1CCn2c(C#Cc3cc(C(=O)Nc4cc(F)c(=O)n(CC(F)F)c4)sc3Cl)cnc2C1` [Compound 66c], the IC50 is over 10000 nM.

Take `O=C(Nc1cc(F)c(=O)n(CC(F)F)c1)c1cc(C#Cc2cnn(CCO)c2)c(Cl)s1` [Compound 122c]: the half-maximal inhibitory concentration (IC50) was 4600 nM.

Consider `O=C1Cc2c(C#Cc3cc(C(=O)Nc4cc(F)c(=O)n(CC(F)F)c4)sc3Cl)cccc2N1` [Compound 142c], for which the IC50 is 3210 nM.

The test system of a further assay is H358 cells. Kind of assay: High-throughput proliferation (HTP) assay for H358 cells (CellTiter-Glo, 7 days). The assay is classed as cell-based. The note with it: Homo sapiens, NCI-H358, 168 h, read-out: H358 SMARCA2 IC50. The essentials:
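Cells were plated at 1,000 cells/well in RPMI 1640 + 10% HI-FBS + 1% pen/strep on pre-dispensed compound and incubated 7 days at 37 °C, 5% CO2. Viability was read as ATP luminescence with CellTiter-Glo after 30 min at RT. DMSO served as 0% and 10 µM doxorubicin as 100% inhibition for EC50/IC50.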
For `Cc1nc2cc(C#Cc3cc(C(=O)Nc4cc(F)c(=O)n(CC(F)F)c4)sc3Cl)ccc2[nH]1` [Compound 141c], the IC50 was over 10000 nM.

With `O=C1CC(C#Cc2cc(C(=O)Nc3cc(F)c(=O)n(CC(F)F)c3)sc2Cl)CN1` (stereo not shown) [Compound 116c], the IC50 is over 10000 nM.

In the case of `O=C(Nc1cc(F)c(=O)n(CC(F)F)c1)c1cc(C#CC2CCOC2)c(Cl)s1` (stereo not shown) [Compound 58c], the IC50 was over 10000 nM.

`NCc1nc(C#Cc2cc(C(=O)Nc3cc(F)c(=O)n(CC(F)F)c3)sc2Cl)cs1` [Compound 125c]: the IC50 was over 10000 nM.

As for `O=C(Nc1cc(F)c(=O)n(CC(F)F)c1)c1cc(C#CC2CCOCC2)c(Cl)s1` [Compound 22c], the IC50 is over 10000 nM.

Regarding `Cc1cc(C#Cc2cc(C(=O)Nc3cc(F)c(=O)n(CC(F)F)c3)sc2Cl)on1` [Compound 63c], the IC50 is over 10000 nM.

`N#Cc1sc(C(=O)Nc2cc(F)c(=O)n(CC(F)F)c2)cc1C#CC1COC1` [Compound 177c]: the IC50 was over 10000 nM.

`O=C(Nc1cc(F)c(=O)n(CC(F)F)c1)c1cc(C#Cc2cn3c(n2)CNCC3)c(Cl)s1` [Compound 147c]: the concentration for half-maximal inhibition (IC50) is over 10000 nM.

Regarding `O=C(Nc1cc(F)c(=O)n(CC(F)F)c1)c1cc(C#Cc2cccnn2)c(Cl)s1` [Compound 55c], the IC50 is over 10000 nM.

For `O=C(Nc1cc(F)c(=O)n(CC(F)F)c1)c1cc(/C=C/c2cccnc2)c(Cl)s1` [Compound 95c], the IC50 is over 10000 nM.

In the case of `Cc1nc(C#Cc2cc(C(=O)Nc3cc(F)c(=O)n(CC(F)F)c3)sc2Cl)cs1` [Compound 61c], the IC50 is over 10000 nM.

Consider `O=C(O)c1cccc(C#Cc2cc(C(=O)Nc3cc(F)c(=O)n(CC(F)F)c3)sc2Cl)c1` [Compound 131c], for which the IC50 is over 10000 nM.

As to `CN(C)C(=O)c1cccc(C#Cc2cc(C(=O)Nc3cc(F)c(=O)n(CC(F)F)c3)sc2Cl)c1` [Compound 74c], the IC50 is over 10000 nM.

For the compound `CN1CCn2c(C#Cc3cc(C(=O)Nc4cc(F)c(=O)n(CC(F)F)c4)sc3Cl)cnc2C1` [Compound 66c], the IC50 is over 10000 nM.

In the case of `O=C(Nc1cc(F)c(=O)n(CC(F)F)c1)c1cc(C#Cc2cnn(CCO)c2)c(Cl)s1` [Compound 122c], the IC50 is over 10000 nM.

In the case of `O=C1Cc2c(C#Cc3cc(C(=O)Nc4cc(F)c(=O)n(CC(F)F)c4)sc3Cl)cccc2N1` [Compound 142c], the IC50 was 4650 nM.

The next assay deals with FL-SMARCA4 (Homo sapiens, UniProt P51532). Kind of assay: SMARCA4 ATPase activity assay (ADP-Glo, chicken mononucleosome substrate). As to conditions: FL-SMARCA4 IC>50, Table 3c.2; ATPase assay, enzyme 5 nM, ATP 250 uM, chicken mononucleosome 10 nM, 30 min preincubation.
Chain of FL-SMARCA4 (P51532 whole entry): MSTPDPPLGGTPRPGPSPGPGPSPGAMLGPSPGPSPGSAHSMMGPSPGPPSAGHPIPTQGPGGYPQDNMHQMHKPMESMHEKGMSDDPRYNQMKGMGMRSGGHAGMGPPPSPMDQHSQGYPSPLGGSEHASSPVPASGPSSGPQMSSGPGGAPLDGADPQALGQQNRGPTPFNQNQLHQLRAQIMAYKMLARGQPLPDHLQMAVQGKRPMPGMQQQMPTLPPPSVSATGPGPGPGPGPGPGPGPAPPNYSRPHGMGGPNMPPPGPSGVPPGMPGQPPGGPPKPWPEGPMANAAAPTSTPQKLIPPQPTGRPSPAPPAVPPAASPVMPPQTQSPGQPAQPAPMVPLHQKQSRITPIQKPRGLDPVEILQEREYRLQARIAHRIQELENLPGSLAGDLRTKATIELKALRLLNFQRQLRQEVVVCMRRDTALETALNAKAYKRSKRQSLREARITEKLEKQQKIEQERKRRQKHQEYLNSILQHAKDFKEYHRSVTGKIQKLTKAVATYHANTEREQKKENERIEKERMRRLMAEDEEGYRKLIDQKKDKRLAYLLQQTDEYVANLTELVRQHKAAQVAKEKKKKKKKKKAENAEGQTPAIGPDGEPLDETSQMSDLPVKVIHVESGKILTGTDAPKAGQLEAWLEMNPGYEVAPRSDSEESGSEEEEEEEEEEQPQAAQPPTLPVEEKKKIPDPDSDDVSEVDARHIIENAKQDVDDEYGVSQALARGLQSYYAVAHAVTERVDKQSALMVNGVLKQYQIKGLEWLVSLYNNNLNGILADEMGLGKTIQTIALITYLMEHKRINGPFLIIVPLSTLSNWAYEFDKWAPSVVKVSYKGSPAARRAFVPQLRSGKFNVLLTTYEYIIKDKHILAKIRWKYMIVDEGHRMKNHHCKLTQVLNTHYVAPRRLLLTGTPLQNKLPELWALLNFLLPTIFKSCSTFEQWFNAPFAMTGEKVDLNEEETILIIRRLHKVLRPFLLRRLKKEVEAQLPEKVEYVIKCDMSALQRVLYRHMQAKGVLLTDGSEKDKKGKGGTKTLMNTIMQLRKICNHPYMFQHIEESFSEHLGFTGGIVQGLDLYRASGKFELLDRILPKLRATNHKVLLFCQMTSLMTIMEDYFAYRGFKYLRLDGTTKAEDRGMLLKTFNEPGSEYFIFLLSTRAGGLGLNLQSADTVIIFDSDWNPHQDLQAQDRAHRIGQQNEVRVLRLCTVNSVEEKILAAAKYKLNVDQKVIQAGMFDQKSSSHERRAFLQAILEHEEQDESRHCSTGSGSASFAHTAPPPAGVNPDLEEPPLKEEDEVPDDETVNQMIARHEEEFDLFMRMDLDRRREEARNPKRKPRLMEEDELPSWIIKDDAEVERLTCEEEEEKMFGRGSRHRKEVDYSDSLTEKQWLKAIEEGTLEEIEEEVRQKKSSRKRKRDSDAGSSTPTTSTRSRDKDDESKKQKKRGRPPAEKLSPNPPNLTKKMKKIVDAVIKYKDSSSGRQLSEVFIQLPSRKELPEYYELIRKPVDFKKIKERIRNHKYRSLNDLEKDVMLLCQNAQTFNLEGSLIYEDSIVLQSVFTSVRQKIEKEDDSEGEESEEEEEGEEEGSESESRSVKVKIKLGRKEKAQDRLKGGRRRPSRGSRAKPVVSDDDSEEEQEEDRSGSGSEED
`Cc1nc2cc(C#Cc3cc(C(=O)Nc4cc(F)c(=O)n(CC(F)F)c4)sc3Cl)ccc2[nH]1` [Compound 141c] had an IC50 of 59.8 nM.

`O=C1CC(C#Cc2cc(C(=O)Nc3cc(F)c(=O)n(CC(F)F)c3)sc2Cl)CN1` (stereo not shown) [Compound 116c] gave an IC50 of 548 nM.

In turn, `O=C(Nc1cc(F)c(=O)n(CC(F)F)c1)c1cc(C#CC2CCOC2)c(Cl)s1` (stereo not shown) [Compound 58c] came in with an IC50 of 178 nM.

For `NCc1nc(C#Cc2cc(C(=O)Nc3cc(F)c(=O)n(CC(F)F)c3)sc2Cl)cs1` [Compound 125c], half-maximal inhibition (IC50) required 166 nM.

Take `O=C(Nc1cc(F)c(=O)n(CC(F)F)c1)c1cc(C#CC2CCOCC2)c(Cl)s1` [Compound 22c]: the IC50 was found to be 60.8 nM.

`Cc1cc(C#Cc2cc(C(=O)Nc3cc(F)c(=O)n(CC(F)F)c3)sc2Cl)on1` [Compound 63c] gave an IC50 of 100 nM.

`N#Cc1sc(C(=O)Nc2cc(F)c(=O)n(CC(F)F)c2)cc1C#CC1COC1` [Compound 177c] had an IC50 of 79.7 nM.

In turn, `O=C(Nc1cc(F)c(=O)n(CC(F)F)c1)c1cc(C#Cc2cn3c(n2)CNCC3)c(Cl)s1` [Compound 147c] gave an IC50 of 7960 nM.

In turn, `O=C(Nc1cc(F)c(=O)n(CC(F)F)c1)c1cc(C#Cc2cccnn2)c(Cl)s1` [Compound 55c] yielded an IC50 of 269 nM.

Consider `O=C(Nc1cc(F)c(=O)n(CC(F)F)c1)c1cc(/C=C/c2cccnc2)c(Cl)s1` [Compound 95c], for which 5710 nM corresponded to half-maximal inhibition (IC50).

As for `Cc1nc(C#Cc2cc(C(=O)Nc3cc(F)c(=O)n(CC(F)F)c3)sc2Cl)cs1` [Compound 61c], the IC50 stood at 86.7 nM.

In turn, `O=C(O)c1cccc(C#Cc2cc(C(=O)Nc3cc(F)c(=O)n(CC(F)F)c3)sc2Cl)c1` [Compound 131c] registered an IC50 of 13.7 nM.

`CN(C)C(=O)c1cccc(C#Cc2cc(C(=O)Nc3cc(F)c(=O)n(CC(F)F)c3)sc2Cl)c1` [Compound 74c] had an IC50 of 245 nM.

`CN1CCn2c(C#Cc3cc(C(=O)Nc4cc(F)c(=O)n(CC(F)F)c4)sc3Cl)cnc2C1` [Compound 66c]: inhibition was half-maximal at 772 nM (IC50).

Compound `O=C(Nc1cc(F)c(=O)n(CC(F)F)c1)c1cc(C#Cc2cnn(CCO)c2)c(Cl)s1` [Compound 122c] gave an IC50 of 130 nM.

For the compound `O=C1Cc2c(C#Cc3cc(C(=O)Nc4cc(F)c(=O)n(CC(F)F)c4)sc3Cl)cccc2N1` [Compound 142c], the IC50 came to 119 nM.
